Patent publication US20090281127A1, “Organic Compounds” (priority 2006, published 2009)
Structures can show the parent of a compound that is named as a salt.

Biological target: adenosine A2a receptor (Homo sapiens, UniProt P29274)
Test: adenosine A2a receptor agonist method of Murphree et al (Ki)
Format: binding
Details: method described by L. J. Murphree et al, Molecular Pharmacology 61, 455-462 (2002)
Experimental: Compounds of formula I and their pharmaceutically acceptable salts are useful as pharmaceuticals. In particular, they activate the adenosine A2a receptor activation, i.e. they act as A2a receptor agonists.
Compounds of the Examples hereinbelow have K; values below 1.0 μM in the above method. For example, the compounds of Examples 6, 10 and 15 have Ki values of 0.004, 0.005, and 0.009 μM respectively.

Sequence of adenosine A2a receptor (P29274 whole entry): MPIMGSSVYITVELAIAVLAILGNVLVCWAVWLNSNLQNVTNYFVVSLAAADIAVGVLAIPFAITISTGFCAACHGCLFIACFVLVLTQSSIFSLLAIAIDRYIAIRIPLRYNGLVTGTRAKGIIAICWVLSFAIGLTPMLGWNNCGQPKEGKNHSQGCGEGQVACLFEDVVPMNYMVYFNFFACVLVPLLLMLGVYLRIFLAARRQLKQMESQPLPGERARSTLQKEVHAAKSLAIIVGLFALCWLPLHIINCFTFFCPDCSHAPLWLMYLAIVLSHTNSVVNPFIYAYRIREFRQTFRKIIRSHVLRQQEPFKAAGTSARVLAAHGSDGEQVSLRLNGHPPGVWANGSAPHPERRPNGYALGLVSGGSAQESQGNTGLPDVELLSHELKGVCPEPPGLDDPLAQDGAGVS

| Ki [nM] | Structure (SMILES) |
| --- | --- |
| 4 | O=C(N[C@H]1C[C@@H](n2cnc3c(NCC(c4ccccc4)c4ccccc4)nc(N[C@H]4CCNC4)nc32)[C@H](O)[C@@H]1O)C1CCC1 [Example 6, Cyclobutanecarboxylic acid {(1S,2R,3S,4R)-4-[6-(2,2-diphenyl-ethylamino)-2-((S)-pyrrolidin-3-ylamino)-purin-9-yl]-2,3-dihydroxy-cyclopentyl}-amide hydrochloride] |
| 5 | O=C(Nc1cccnc1)NC1CCN(c2nc(NCC(c3ccccc3)c3ccccc3)c3ncn(C4CC(NC(=O)C5CCC5)C(O)C4O)c3n2)C1 [Example 10, Cyclobutanecarboxylic acid ((1S,2R,3S,4R)-4-{6-(2,2-diphenyl-ethylamino)-2-[(R)-3-(3-pyridin-3-yl-ureido)-pyrrolidin-1-yl]-purin-9-y}-2,3-dihydroxy-cyclopentyl)-amide] |
| 9 | O=C(N[C@H]1C[C@@H](n2cnc3c(NCC(c4ccccc4)c4ccccc4)nc(N[C@@H]4CCN(C(=O)NC5CCN(c6ccccn6)CC5)C4)nc32)[C@H](O)[C@@H]1O)C1CCC1 [Example 15, (R)-3-[9-[(1R,2S,3R,4S)-4-(cyclobutanecarbonyl-amino)-2,3-dihydroxy-cyclopentyl]-6-(2,2-diphenyl-ethylamino)-9H-purin-2-ylamino]-pyrrolidine-1-carboxylic acid (3,4,5,6-tetrahydro-2H-[1,2′]bipyridinyl-4-yl)-amide trifluoroacetate] |
